According to the supplement of paper PMC10307832:

Tests used:
Test in all cases: relative viability (nuclei count vs DMSO), 5 days (fraction); higher = more cells survive
UMC-11 = tested on: UMC-11
Method in brief: (§1)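 Lung cancer cell lines in 1536-well plates got either a single drug or a fixed anchor-drug dose together with five library-drug doses (not always all listed) in √10 steps, by pin tool, on the day after seeding. Nuclei were counted after 5 days, and relative viability is the treated-to-vehicle ratio of nuclei counts. Values are medians of duplicate plates.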

NCI-H2023 = tested on: NCI-H2023
Method in brief: as §1

EMC-BAC-2 = tested on: EMC-BAC-2
Method in brief: as §1

NCI-H650 = tested on: NCI-H650
Method in brief: as §1

NCI-H2405 = tested on: NCI-H2405
Method in brief: as §1

NCI-H1793 = tested on: NCI-H1793
Method in brief: as §1

NCI-H322M = tested on: NCI-H322M
Method in brief: as §1

NCI-H1395 = tested on: NCI-H1395
Method in brief: as §1

HCC-827 = tested on: HCC-827
Method in brief: as §1

LCLC-103H = tested on: LCLC-103H
Method in brief: as §1

NCI-H1944 = tested on: NCI-H1944
Method in brief: as §1

SK-MES-1 = tested on: SK-MES-1
Method in brief: as §1

H3255 = tested on: H3255
Method in brief: as §1

NCI-H520 = tested on: NCI-H520
Method in brief: as §1

LCLC-97TM1 = tested on: LCLC-97TM1
Method in brief: as §1

EPLC-272H = tested on: EPLC-272H
Method in brief: as §1

NCI-H1563 = tested on: NCI-H1563
Method in brief: as §1

NCI-H1651 = tested on: NCI-H1651
Method in brief: as §1

HCC-44 = tested on: HCC-44
Method in brief: as §1

NCI-H2087 = tested on: NCI-H2087
Method in brief: as §1

NCI-H2085 = tested on: NCI-H2085
Method in brief: as §1

NCI-H1355 = tested on: NCI-H1355
Method in brief: as §1

## CC1(C)CCC(c2ccc(Cl)cc2)=C(CN2CCN(c3ccc(C(=O)NS(=O)(=O)c4ccc(N[C@H](CCN5CCOCC5)CSc5ccccc5)c(S(=O)(=O)C(F)(F)F)c4)cc3)CC2)C1 [Navitoclax] + C[C@]1(O)C[C@@H](c2nc(-c3ccc4ccc(-c5ccccc5)nc4c3)c3c(N)nccn32)C1 [Linsitinib] (partner 1 µM)
UMC-11; first compound 0.005 µM
  relative viability: 0.97
UMC-11; first compound 0.01581 µM
  relative viability: 1.03
UMC-11; first compound 0.1581 µM
  relative viability: 1.01
UMC-11; first compound 0.5 µM
  relative viability: 0.893
NCI-H2023; first compound 0.005 µM
  relative viability: 0.625
NCI-H2023; first compound 0.01581 µM
  relative viability: 0.713
NCI-H2023; first compound 0.05 µM
  relative viability: 0.716
NCI-H2023; first compound 0.1581 µM
  relative viability: 0.766
NCI-H2023; first compound 0.5 µM
  relative viability: 0.647
EMC-BAC-2; first compound 0.005 µM
  relative viability: 0.759
EMC-BAC-2; first compound 0.01581 µM
  relative viability: 0.895
EMC-BAC-2; first compound 0.05 µM
  relative viability: 0.809
EMC-BAC-2; first compound 0.1581 µM
  relative viability: 0.78
EMC-BAC-2; first compound 0.5 µM
  relative viability: 0.83
NCI-H650; first compound 0.005 µM
  relative viability: 0.703
NCI-H650; first compound 0.01581 µM
  relative viability: 0.817
NCI-H650; first compound 0.05 µM
  relative viability: 0.97
NCI-H650; first compound 0.1581 µM
  relative viability: 0.767
NCI-H650; first compound 0.5 µM
  relative viability: 0.846
NCI-H2405; first compound 0.005 µM
  relative viability: 0.899
NCI-H2405; first compound 0.01581 µM
  relative viability: 1.02
NCI-H2405; first compound 0.05 µM
  relative viability: 0.922
NCI-H2405; first compound 0.1581 µM
  relative viability: 0.937
NCI-H2405; first compound 0.5 µM
  relative viability: 0.88
NCI-H1793; first compound 0.005 µM
  relative viability: 0.97
NCI-H1793; first compound 0.01581 µM
  relative viability: 1.17
NCI-H1793; first compound 0.05 µM
  relative viability: 0.643
NCI-H1793; first compound 0.1581 µM
  relative viability: 0.834
NCI-H1793; first compound 0.5 µM
  relative viability: 0.766
NCI-H322M; first compound 0.005 µM
  relative viability: 0.79
NCI-H322M; first compound 0.01581 µM
  relative viability: 0.992
NCI-H322M; first compound 0.05 µM
  relative viability: 0.96
NCI-H322M; first compound 0.1581 µM
  relative viability: 0.953
NCI-H322M; first compound 0.5 µM
  relative viability: 0.921
NCI-H1395; first compound 0.005 µM
  relative viability: 0.938
NCI-H1395; first compound 0.01581 µM
  relative viability: 1.34
NCI-H1395; first compound 0.05 µM
  relative viability: 1.08
NCI-H1395; first compound 0.1581 µM
  relative viability: 1.13
NCI-H1395; first compound 0.5 µM
  relative viability: 1.27
HCC-827; first compound 0.005 µM
  relative viability: 0.91
HCC-827; first compound 0.01581 µM
  relative viability: 0.989
HCC-827; first compound 0.05 µM
  relative viability: 0.864
HCC-827; first compound 0.1581 µM
  relative viability: 0.926
HCC-827; first compound 0.5 µM
  relative viability: 0.928
LCLC-103H; first compound 0.005 µM
  relative viability: 1.07
LCLC-103H; first compound 0.01581 µM
  relative viability: 1.19
LCLC-103H; first compound 0.05 µM
  relative viability: 1.09
LCLC-103H; first compound 0.1581 µM
  relative viability: 1.03
LCLC-103H; first compound 0.5 µM
  relative viability: 1.02
NCI-H1944; first compound 0.005 µM
  relative viability: 1.19
NCI-H1944; first compound 0.01581 µM
  relative viability: 1.33
NCI-H1944; first compound 0.05 µM
  relative viability: 1.01
NCI-H1944; first compound 0.1581 µM
  relative viability: 1.19
NCI-H1944; first compound 0.5 µM
  relative viability: 1.17
SK-MES-1; first compound 0.005 µM
  relative viability: 1.03
SK-MES-1; first compound 0.01581 µM
  relative viability: 1.19
SK-MES-1; first compound 0.05 µM
  relative viability: 1.19
SK-MES-1; first compound 0.1581 µM
  relative viability: 1.02
SK-MES-1; first compound 0.5 µM
  relative viability: 1.1
H3255; first compound 0.005 µM
  relative viability: 0.917
H3255; first compound 0.01581 µM
  relative viability: 1.12
H3255; first compound 0.05 µM
  relative viability: 0.877
H3255; first compound 0.1581 µM
  relative viability: 0.892
H3255; first compound 0.5 µM
  relative viability: 0.89
NCI-H520; first compound 0.005 µM
  relative viability: 0.891
NCI-H520; first compound 0.01581 µM
  relative viability: 1.15
NCI-H520; first compound 0.05 µM
  relative viability: 1.12
NCI-H520; first compound 0.1581 µM
  relative viability: 0.832
NCI-H520; first compound 0.5 µM
  relative viability: 0.771
LCLC-97TM1; first compound 0.005 µM
  relative viability: 0.189
LCLC-97TM1; first compound 0.01581 µM
  relative viability: 0.186
LCLC-97TM1; first compound 0.05 µM
  relative viability: 0.193
LCLC-97TM1; first compound 0.1581 µM
  relative viability: 0.18
LCLC-97TM1; first compound 0.5 µM
  relative viability: 0.172
EPLC-272H; first compound 0.005 µM
  relative viability: 1.29
EPLC-272H; first compound 0.1581 µM
  relative viability: 1.26
EPLC-272H; first compound 0.5 µM
  relative viability: 0.997
NCI-H1563; first compound 0.005 µM
  relative viability: 0.99
NCI-H1563; first compound 0.01581 µM
  relative viability: 1.13
NCI-H1563; first compound 0.05 µM
  relative viability: 1.17
NCI-H1563; first compound 0.1581 µM
  relative viability: 1.24
NCI-H1563; first compound 0.5 µM
  relative viability: 1.27
NCI-H1651; first compound 0.005 µM
  relative viability: 0.945
NCI-H1651; first compound 0.01581 µM
  relative viability: 1.25
NCI-H1651; first compound 0.1581 µM
  relative viability: 0.966
NCI-H1651; first compound 0.5 µM
  relative viability: 0.937
HCC-44; first compound 0.005 µM
  relative viability: 0.592
HCC-44; first compound 0.01581 µM
  relative viability: 0.625
HCC-44; first compound 0.05 µM
  relative viability: 0.594
HCC-44; first compound 0.1581 µM
  relative viability: 0.649
HCC-44; first compound 0.5 µM
  relative viability: 0.646
NCI-H2087; first compound 0.005 µM
  relative viability: 0.919
NCI-H2087; first compound 0.01581 µM
  relative viability: 0.898
NCI-H2087; first compound 0.05 µM
  relative viability: 0.956
NCI-H2087; first compound 0.1581 µM
  relative viability: 1.14
NCI-H2087; first compound 0.5 µM
  relative viability: 0.871
NCI-H2085; first compound 0.005 µM
  relative viability: 0.828
NCI-H2085; first compound 0.01581 µM
  relative viability: 0.96
NCI-H2085; first compound 0.05 µM
  relative viability: 0.831
NCI-H2085; first compound 0.1581 µM
  relative viability: 1
NCI-H2085; first compound 0.5 µM
  relative viability: 0.947
NCI-H1355; first compound 0.005 µM
  relative viability: 0.831
NCI-H1355; first compound 0.01581 µM
  relative viability: 0.892
NCI-H1355; first compound 0.05 µM
  relative viability: 0.817
NCI-H1355; first compound 0.1581 µM
  relative viability: 0.775
NCI-H1355; first compound 0.5 µM
  relative viability: 0.834
